Where two headings read alike, the source gives them in different places. Ends that are not written are not given here.
Tests used:
[1] = test system: S. aureus (ATCC CRM 6538); format: cell-based
Protocol: (§1) A measure of 5 × 10^5 CFU/mL of bacterial suspension including 2-fold dilution peptides (ranging from 1 µM to 512 µM) was incubated in 96-well plates for 16–20 h at 37 °C. For the positive and negative control, 200 mg/L of final concentration of norfloxacin and 1% DMSO were applied, respectively. […] Subsequently, 10 µL of the solution in each clear well was dropped on a Mueller–Hinton agar (MHA) plate and incubated at 37 °C for 16–20 h. The lowest concentration without colony growth was considered as the MBCs.
(§2) Mueller–Hinton broth (MHB) at pH 6.0 and 8.0 as well as MHB containing 10% of Fetal Bovine Serum (FBS), 150 mM of NaCl, 1 mM of MgCl2 and 4 µM of FeCl3, respectively, were prepared. In particular, the pathogens were diluted by the preprepared mediums to a final concentration of 5 × 10^5 CFU/mL after growing to the logarithmic phase, and other operations followed the MIC assay.

[2] = test system: K. pneumoniae (ATCC 43816); format: cell-based
Protocol: as §1, §2

MRSA (NCTC 12493) = format: cell-based
Protocol: as §1, §2

E. faecalis (NCTC 12697) = format: cell-based
Protocol: as §1, §2

E. coli (ATCC 8739) = format: cell-based
Protocol: as §1, §2

[3] = test system: P. aeruginosa (ATCC 27853); format: cell-based
Protocol: as §1, §2

[4] = test system: erythrocytes from defibrinated horse blood; conditions: 256 µM
Source text: (§4) The erythrocytes from defibrinated horse blood (TCS Biosciences Ltd., Buckingham, UK) were used to perform the haemolysis assay, as described previously [27]. Equal volumes of PBS and 2% (v/v) of the non-ionic detergent, Triton X-100 (Sigma–Aldrich, St. Louis, MO, USA) in PBS solution, were used as negative and positive controls, respectively. HC50 was defined as the mean peptide concentration producing 50% haemolysis.

[5] = test system: erythrocytes from defibrinated horse blood; test: Haemolysis assay; conditions: for haemolytic activity (in words): compared with the preceding peptide of the design series
Source text: as §4

[6] = test system: S. aureus (ATCC CRM 6538) biofilm; format: cell-based
Protocol: (§3) The anti-biofilm activities were tested on S. aureus and E. coli, as indicated previously. For the positive and negative control, 20 mg/mL of vancomycin and 1% DMSO were applied, respectively, in both assays. In addition, 0.1% Crystal Violet was used as the biofilm colouring agent.

[7] = test system: E. coli (ATCC 8739) biofilm; format: cell-based
Protocol: as §3

[8] = 50% TFE environment ref 44; cited from earlier work
Source text: As the same situation found in the study of Temporin B KKG6A [31], T1CEh-KK experienced an improvement in antimicrobial activity, especially for the inhibition of the growth of E. coli. In addition, the substitution by proline leads to the weakening of the antimicrobial ability of T1CEh-KKP except for against S. aureus.

| Substance | MBC ([1]; ATCC CRM 6538) | MIC ([1]; ATCC CRM 6538) | MIC ([1]; ATCC CRM 6538, pH 6) | MIC ([1]; ATCC CRM 6538, pH 7) | MIC ([1]; ATCC CRM 6538, pH 8) | MBC ([2]; ATCC 43816) | MIC ([2]; ATCC 43816) | MIC ([2]; ATCC 43816, pH 6) | MIC ([2]; ATCC 43816, pH 7) | MIC ([2]; ATCC 43816, pH 8) | MBC (MRSA (NCTC 12493); NCTC 12493) | MIC (MRSA (NCTC 12493); NCTC 12493) | MIC (MRSA (NCTC 12493); NCTC 12493, pH 6) | MIC (MRSA (NCTC 12493); NCTC 12493, pH 7) | MBC (E. faecalis (NCTC 12697); NCTC 12697) | MIC (E. faecalis (NCTC 12697); NCTC 12697) | MIC (E. coli (ATCC 8739); ATCC 8739) | MBC ([3]; ATCC 27853) | MIC ([3]; ATCC 27853) | MBC (E. coli (ATCC 8739); ATCC 8739) | other results |
| --- | --- | --- | --- | --- | --- | --- | --- | --- | --- | --- | --- | --- | --- | --- | --- | --- | --- | --- | --- | --- | --- |
| FVDLKKIANILNSIF-NH2 [Temporin-1CEh] | 16 µM | 8 µM | 128 µM | 8 µM | 128 µM | 256 µM | 256 µM | >512 µM | 256 µM | >512 µM | 16 µM | 16 µM | 256 µM | 16 µM | 32 µM | 32 µM | 128/128 μM | 256 µM | 128 µM | – | MIC (MRSA (NCTC 12493); NCTC 12493, pH 8): 256 µM; MIC (E. faecalis (NCTC 12697); NCTC 12697, pH 6): >512 µM; MIC (E. faecalis (NCTC 12697); NCTC 12697, pH 7): 32 µM; MIC (E. faecalis (NCTC 12697); NCTC 12697, pH 8): >512 µM; MIC (E. coli (ATCC 8739); ATCC 8739, pH 6): >512 µM; MIC (E. coli (ATCC 8739); ATCC 8739, pH 7): 128 µM; MIC (E. coli (ATCC 8739); ATCC 8739, pH 8): >512 µM; MIC ([3]; ATCC 27853, pH 6): >512 µM; MIC ([3]; ATCC 27853, pH 7): 128 µM; MIC ([3]; ATCC 27853, pH 8): >512 µM; haemolysis rate [4]: 92.3%; HC50 ([5]; mean peptide concentration producing 50% haemolysis, horse erythrocytes): 152.6 µM; MBEC [6]: > 256 µM; MBIC [6]: 64 µM |
| KKWVPLKKIANIL-NH2 [Peptide T1CEh-KKPW] | 16 µM | 8 µM | >512 µM | 8 µM | 32 µM | 16 µM | 16 µM | 256 µM | 16 µM | 128 µM | 64 µM | 16 µM | >512 µM | 16 µM | > 512 µM | > 512 µM | 8 µM | 64 µM | 32 µM | 16 µM | MIC (MRSA (NCTC 12493); NCTC 12493, pH 8): 128 µM; MIC (E. faecalis (NCTC 12697); NCTC 12697, pH 6): >512 µM; MIC (E. faecalis (NCTC 12697); NCTC 12697, pH 7): >512 µM; MIC (E. faecalis (NCTC 12697); NCTC 12697, pH 8): 256 µM; MIC (E. coli (ATCC 8739); ATCC 8739, pH 6): 16 µM; MIC (E. coli (ATCC 8739); ATCC 8739, pH 7): 8 µM; MIC (E. coli (ATCC 8739); ATCC 8739, pH 8): 8 µM; MIC ([3]; ATCC 27853, pH 6): 64 µM; MIC ([3]; ATCC 27853, pH 7): 32 µM; MIC ([3]; ATCC 27853, pH 8): 32 µM; haemolysis rate ([5]; at 256 μM, horse erythrocytes): lower than 10%; MBEC [7]: > 256 µM; MBIC [7]: 16 µM; MBEC [6]: > 256 µM; MBIC [6]: 16 µM |
| KKFVDLKKIANIL-NH2 [Peptide T1CEh-KK] | > 512 µM | 256 µM | – | – | – | 128 µM | 128 µM | – | – | – | > 512 µM | > 512 µM | – | – | > 512 µM | 64 µM | 8 µM | 256 µM | 256 µM | 16 µM | haemolytic activity (in words) ([5]; horse erythrocytes): maintained the low level of haemolysis |
| KKWVPWKKIANIL-NH2 [Peptide T1CEh-KKPWW] | 4 µM | 4 µM | 32 µM | 4 µM | 4 µM | 4 µM | 4 µM | 32 µM | 4 µM | 8 µM | 256 µM | 32 µM | 256 µM | 32 µM | 128 µM | 128 µM | 4 µM | 16 µM | 16 µM | 4 µM | MIC (MRSA (NCTC 12493); NCTC 12493, pH 8): 32 µM; MIC (E. faecalis (NCTC 12697); NCTC 12697, pH 6): >512 µM; MIC (E. faecalis (NCTC 12697); NCTC 12697, pH 7): 128 µM; MIC (E. faecalis (NCTC 12697); NCTC 12697, pH 8): 64 µM; MIC (E. coli (ATCC 8739); ATCC 8739, pH 6): 4 µM; MIC (E. coli (ATCC 8739); ATCC 8739, pH 7): 4 µM; MIC (E. coli (ATCC 8739); ATCC 8739, pH 8): 4 µM; MIC ([3]; ATCC 27853, pH 6): 16 µM; MIC ([3]; ATCC 27853, pH 7): 16 µM; MIC ([3]; ATCC 27853, pH 8): 4 µM; haemolysis rates ([5]; concentration not stated at the place (gradient of Figure 4)): lower than 6%; MBEC [7]: > 256 µM; MBEC [6]: > 256 µM |
| FVDLKKIANII-NH2 [Peptide T1CEa-t] | > 512 µM | > 512 µM | – | – | – | > 512 µM | > 512 µM | – | – | – | > 512 µM | > 512 µM | – | – | > 512 µM | > 512 µM | > 512 µM | > 512 µM | > 512 µM | > 512 µM | haemolytic activity (in words) ([5]; horse erythrocytes): completely lost |
| FVDLKKIANIL-NH2 [Peptide T1CEh-t] | > 512 µM | > 512 µM | – | – | – | > 512 µM | > 512 µM | – | – | – | > 512 µM | > 512 µM | – | – | > 512 µM | > 512 µM | > 512 µM | > 512 µM | > 512 µM | > 512 µM | haemolytic activity (in words) ([5]; horse erythrocytes): completely lost |
| Buforin II | – | – | – | – | – | – | – | – | – | – | – | – | – | – | – | – | – | – | – | – | helicity percent [8]: 43% |
| KKFVPLKKIANIL-NH2 [Peptide T1CEh-KKP] | 64 µM | 32 µM | – | – | – | > 512 µM | > 512 µM | – | – | – | 256 µM | 256 µM | – | – | > 512 µM | > 512 µM | 128 µM | > 512 µM | 512 µM | 128 µM | – |

— article PMC8949600, “In Vitro & In Vivo Studies on Identifying and Designing Temporin-1CEh from the Skin Secretion of Rana chensinensis as the Optimised Antibacterial Prototype Drug” (Pharmaceutics, 2022)
